In US10834943B2, “Organic compounds having taste-modifying properties” (GIVAUDAN SA, priority 2013, dated 2020):

Test: Mango-flavoured beverage evaluated by a panel of experienced tasters
Conditions: 0.5 ppm dosed to mango drink (mango flavour 0.05% w/w, mango juice 0.18% w/w, sugar 8% w/w, citric acid 0.1% w/w)
Procedure: A mango-flavoured beverage was prepared using a standard mango flavour (0.05% w/w), mango juice (0.18% w/w), sugar (8% w/w) and citric acid (0.1% w/w).

| SMILES | taste of the mango drink versus the reference drink (panel agreement) |
| --- | --- |
| CC/C=C\C/C=C\C/C=C\CCCCCCCC(=O)NC(C)C(=O)OC (centres unmarked) [Example 7, Methyl 2-((9Z,12Z,15Z)-octadeca-9,12,15-trienamido)propanoate] | more fully, more fatty than the reference drink |
| CCCCC/C=C\C/C=C\CCCCCCCC(=O)N1CCCC1C(=O)OC (centres unmarked) [Example 6, Methyl 1-((9Z,12Z)-octadeca-9,12-dienoyl)pyrrolidine-2-carboxylate] | more fruity and peach-like than the reference drink |
